Experiments:
Assay type in all cases: in vivo
plasma ROS = plasma ROS level (DCFH-DA) in alcohol-exposed mice; details: FIG. 18
Description: (§1) All animal testing procedures were performed in accordance with Andong National University's small animal testing guidelines, and were approved by the Andong National University Animal Care and Use Committee. All mice were housed where food and water were provided autonomously, and lighting was controlled (12-hour light/dark cycle). The ellagic acid was orally administered to 6-week-old female C57BL/6J mice at a daily dose of 60 mg/Kg as a physiologically and clinically relevant dose, and 200 mg/Kg silymarin was administered as a positive control. Water was orally administered to control mice. After the administration of ellagic acid for 14 days, alcohol or dextrose (control) was orally administered to some of the mice at a dose of 5 g/Kg, three times at 12-hour intervals. The mice were sacrificied 1 hour after the last administration.
(§2) Levels of plasma ROS were visualized with 2′,7′-dichlorofluorescein diacetate (DCFH-DA) purchased from Thermo Fisher Scientific. After the DCFH-DA was incubated at 37° C. for 20 minutes, DCFH-DA fluorescence was measured. Plasma alcohol levels were measured using a commercially available kit manufactured by BioVision.
CYP2E1 generates reactive oxygen species (ROS) in alcoholic and nonalcoholic liver disease.

[1] = system: hepatic triglyceride (TG); assay: hepatic triglyceride (TG) level in alcohol-exposed mice; details: EA-pretreated group vs alcohol-exposed group; FIG. 14
Description: as §1
The level of triglyceride (TG) in the liver was measured using a commercially available kit manufactured by Asan Co., Ltd. (Gimpo, South Korea).
(§3) To evaluate the effect of ellagic acid (EA) on hepatic fat accumulation, and plasma ALT and hepatic triglyceride levels, liver tissues taken from mouse models were histologically analyzed through H/E staining and Oil Red O staining.

TNF-α = assay: intestinal TNF-α level (ELISA) in alcohol-exposed mice; details: EA pretreatment vs alcohol-exposed group; EA 60 mg/Kg daily oral 14 days; FIG. 8
Description: as §1
Liver solutions were analyzed using an ELISA kit for TNF-α, manufactured by Abcam (Cambridge, United Kingdom), according to the manufacturer's instructions. To use equal amounts of protein for the ELISA, protein concentration was measured with BCA reagent manufactured by BioRad (Hercules, Calif.). […]
(§4) Intestinal microbial products can be stimulated by intestinal leak and endotoxins. Plasma endotoxin and intestinal TNF-α levels were measured to determine whether ellagic acid (EA)-mediated prophylaxis occurred at altered levels of microbial composition.

[2] = system: p-JNK, Bax, cleaved caspase-3 in the liver; assay: liver apoptosis markers (Western blot, cleaved caspase-3 staining, TUNEL) in alcohol-exposed mice
Description: as §1
Portions of liver tissue and small intestine from each mouse were homogenized with RIPA buffer. Equally pooled protein in an amount of 50 ug collected from different mouse samples within the same group were separated by SDS/PAGE and transferred to nitrocellulose membranes. These membranes were incubated with polyclonal antibodies against CYP2E1 (1:5,000 dilution; Abcam), p-JNK (1:1,000 dilution; Cell Signaling), 3-NT (1:5,000 dilution; Abcam), iNOS (1:5,000 dilution; Abcam), cleaved caspase-3 (1:1,000 dilution; Cell Signaling), ZO-1 (1:5,000 dilution; Abcam), and claudin-1 (1:1,000 dilution; Thermo Fisher). Each mouse monoclonal antibody against JNK (1:1,000 dilution; Cell Signaling), Bax (1:1,000 dilution; Santa Cruz Biotechnology), or […] (1:10,000 dilution; Santa Cruz Biotechnology) was used to detect specific antigenic targets. […] Relative protein images were determined using the HRP-binding secondary antibody and an ECL substrate (Thermo Fishers). The intensity of immune response bands was quantified by density using ImageJ software (National Institutes of Health). […]

ZO-1 and β-catenin = assay: intestinal tight junction (TJ) and anchoring junction (AJ) protein expression in alcohol-exposed mice; details: EA-pretreated group within the alcohol-exposed group; FIG. 10
Description: as §1, with “After the administration of ellagic acid for 14 days, alcohol or dextrose (control) was orally administered to some of the mice at a dose of 5 g/Kg, three times at 12-hour intervals. The mice were sacrificied 1 hour after the last administration.” left out
Portions of liver tissue and small intestine from each mouse were homogenized with RIPA buffer. […] Relative protein images were determined using the HRP-binding secondary antibody and an ECL substrate (Thermo Fishers). The intensity of immune response bands was quantified by density using ImageJ software (National Institutes of Health).
(§5) Changes in the expression of intestinal tight junction (TJ) and anchoring junction (AJ) proteins are observed in mouse models with alcohol-induced intestinal leak. To evaluate whether ellagic acid (EA) prevents alcohol-induced intestinal leakage, the expression levels of intestinal TJ and AJ proteins after the ellagic acid administration were measured.

[3] = system: fat accumulation in the liver; assay: liver histology (H/E and Oil Red O staining) in alcohol-exposed mice; details: EA-pretreated group vs alcohol-exposed group, FIGS. 12 and 13
Description: as §1
(§6) Portions of the largest liver lobes or small intestines from the mice pretreated with ellagic acid and from the controls were fixed in neutral formalin. […] Plasma ALT levels of each mouse were measured using a standard endpoint colorimetric assay kit (Bio Vision, Milpitas, Calif.).
as §3

[4] = blood alcohol concentration (BAC) in alcohol-exposed mice; details: EA-pretreated group; FIG. 16
Description: as §1, §2, §3

cecal microbiota = cecal microbiota 16S sequencing, alcohol exposure and EA pretreatment in mice
Description: All animal testing procedures were performed in accordance with Andong National University's small animal testing guidelines, and were approved by the Andong National University Animal Care and Use Committee. All mice were housed where food and water were provided autonomously, and lighting was controlled (12-hour light/dark cycle). The ellagic acid was orally administered to 6-week-old female C57BL/6J mice at a daily dose of 60 mg/Kg as a physiologically and clinically relevant dose, and 200 mg/Kg silymarin was administered as a positive control. Water was orally administered to control mice. After the administration of ellagic acid for 14 days, alcohol or dextrose (control) was orally administered to some of the mice at a dose of 5 g/Kg, three times at 12-hour intervals. The mice were […] 1 hour after the last administration. Fecal samples were aseptically collected from the cecum of each mouse and frozen at -80° C. DNA was extracted using the Mag-Bind Universal Pathogen DNA Kit (Chunlab, Seoul, South Korea) according to the manufacturer's instructions. DNA sequencing of bacterial 16S rRNA in each fecal sample was performed at Chunlab (https://www.chunlab.com/). Intestinal microbiome and bacterial products have been associated with liver diseases (ALD). To evaluate the effect of ellagic acid (EA) on the intestinal microbial distribution in an alcoholic liver disease model, the cecal microbiota according to alcohol exposure and EA pretreatment in mice was evaluated according to the experimental design of FIG. 1. […] However, in the case of the alcohol exposure group, Verrucomicrobia phylum increased whereas Firmicutes phylum decreased.

plasma ALT = plasma ALT level in alcohol-exposed mice; details: EA-pretreated group vs alcohol-exposed group; FIG. 15
Description: as §1, §6, §3

[5] = system: CYP2E1, iNOS, and 3-NT proteins in the intestine; assay: intestinal oxidative stress marker proteins (immunoblot) in alcohol-exposed mice; details: EA-pretreated group vs alcohol-exposed group; FIG. 9
Description: Portions of liver tissue and small intestine from each mouse were homogenized with RIPA buffer. Equally pooled protein in an amount of 50 ug collected from different mouse samples within the same group were separated by SDS/PAGE and transferred to nitrocellulose membranes. These membranes were incubated with polyclonal antibodies against CYP2E1 (1:5,000 dilution; Abcam), p-JNK (1:1,000 dilution; Cell Signaling), 3-NT (1:5,000 dilution; Abcam), iNOS (1:5,000 dilution; Abcam), cleaved caspase-3 (1:1,000 dilution; Cell Signaling), ZO-1 (1:5,000 dilution; Abcam), and claudin-1 (1:1,000 dilution; Thermo Fisher). Each mouse monoclonal antibody against JNK (1:1,000 dilution; Cell Signaling), Bax (1:1,000 dilution; Santa Cruz Biotechnology), or +-actin (1:10,000 dilution; Santa Cruz Biotechnology) was used to detect specific antigenic targets. […] Relative protein images were determined using the HRP-binding secondary antibody and an ECL substrate (Thermo Fishers). The intensity of immune response bands was quantified by density using ImageJ software (National Institutes of Health).
To evaluate the effect of ellagic acid on intestinal oxidative stress, the expression levels of CYP2E1, iNOS, and 3-NT proteins were measured.

plasma endotoxin = plasma endotoxin level (LAL chromogenic kit) in alcohol-exposed mice; details: EA-pretreated group vs alcohol-exposed group; EA 60 mg/Kg daily oral 14 days; FIG. 7
Description: as §1
Plasma endotoxin levels were measured using a commercial endpoint LAL Chromogenic Endotoxin Quantitation Kit manufactured by Thermo Fisher Scientific (Waltham, Mass.) and having a concentration range of 0.015 to 1.2 EU/mL.
as §4

intestinal cells = assay: apoptosis of intestinal cells in alcohol-exposed mice; details: EA pretreatment group, alcohol-induced; FIG. 11
Description: as §1
Small intestine and liver specimens were fixed overnight in 10% buffered formalin and embedded in paraffin. […]
as §5

[6] = system: CYP2E1, iNOS and 3-NT proteins in the liver; assay: hepatic CYP2E1 expression and activity and oxidative stress marker proteins in alcohol-exposed mice
Description: CYP2E1 Activity Analysis Liver solutions were each analyzed with an ELISA kit for CYP2E1, manufactured by Claud-clone corporation (Houston, Tex.), according to the manufacturer's instructions.
Portions of liver tissue and small intestine from each mouse were homogenized with RIPA buffer. Equally pooled protein in an amount of 50 ug collected from different mouse samples within the same group were separated by SDS/PAGE and transferred to nitrocellulose membranes. These membranes were incubated with polyclonal antibodies against CYP2E1 (1:5,000 dilution; Abcam), p-JNK (1:1,000 dilution; Cell Signaling), 3-NT (1:5,000 dilution; Abcam), iNOS (1:5,000 dilution; Abcam), cleaved caspase-3 (1:1,000 dilution; Cell Signaling), ZO-1 (1:5,000 dilution; Abcam), and claudin-1 (1:1,000 dilution; Thermo Fisher). Each mouse monoclonal antibody against JNK (1:1,000 dilution; Cell Signaling), Bax (1:1,000 dilution; Santa Cruz Biotechnology), or +-actin (1:10,000 dilution; Santa Cruz Biotechnology) was used to detect specific antigenic targets. After washing the nitrocellulose membranes three times with PBS at 10-minute intervals, horseradish peroxidase (HRP)-conjugated anti-rabbit or anti-mouse IgG (manufactured by Santa Cruz Biotechnology) was diluted at a ratio of 1:5,000 and used as a secondary antibody. Relative protein images were determined using the HRP-binding secondary antibody and an ECL substrate (Thermo Fishers). The intensity of immune response bands was quantified by density using ImageJ software (National Institutes of Health).
To evaluate the effect of ellagic acid (EA) on hepatic oxidative stress, the expression and activity levels of CYP2E1 proteins were measured.

[7] = EA-pretreated group vs alcohol-exposed group, Western blot, FIG. 20
[8] = summary statement, alcohol intake
[9] = EA-pretreated group vs alcohol-exposed group, FIGS. 17 and 19
[10] = EA-pretreated group vs alcohol-exposed mice, FIG. 19

For `O=c1oc2c(O)c(O)cc3c(=O)oc4c(O)c(O)cc1c4c23` [ellagic acid], which “increase in the level of plasma ROS attributable to alcohol intake” value (plasma ROS) is on record?
Its value is “suppressed”.

And the “hepatic triglyceride (TG) level” value [1]?
The value was “decreased”.

And the “alcohol-induced increase in intestinal TNF-α level” value (TNF-α)?
Its value is “suppressed”.

And the “Bax (apoptosis marker protein) in the liver” value [2, 7]?
Its value is “decreased”.

And the “p-JNK (apoptosis marker protein) in the liver” value [2, 7]?
The value was “decreased”.

And the “apoptosis marker proteins by cleaved caspase-3 staining and TUNEL analysis in the liver” value ([2]; EA-pretreated group vs mice exposed to alcohol, FIGS. 21 and 22)?
Its value is “decreased”.

And the “level of intestinal ZO-1” value (ZO-1 and β-catenin)?
Its value is “recovery”.

What about the “level of intestinal β-catenin” value (ZO-1 and β-catenin) of the same compound?
Its value is “recovery”.

And the “fat accumulation in the liver” value [3]?
The value was “decreased”.

And the “increase in blood alcohol concentration (BAC) caused by alcohol intake” value [4]?
Its value is “suppressed”.

What about the “gene of the genus Bacteroides” value (cecal microbiota; EA-pretreated mice vs alcohol-exposed group, EA 60 mg/Kg daily oral 14 days, alcohol 5 g/Kg three times, FIG. 4) of the same compound?
Its value is “decreased”.

What about the “gene level of E. coli” value (cecal microbiota; EA-pretreated mice vs alcohol-exposed group, EA 60 mg/Kg daily oral 14 days, alcohol 5 g/Kg three times, FIG. 5) of the same compound?
The value was “decreased to a level similar to that of the control group”.

And the “change in intestinal microbial distribution at the phylum level” value (cecal microbiota; control group and EA pretreatment group, EA 60 mg/Kg daily oral 14 days, female C57BL/6J mice, FIGS. 2 and 3)?
Its value is “no significant change”.

What about the “growth of Bacteroidetes (harmful bacteria) attributable to alcohol intake” value (cecal microbiota; [8]) of the same compound?
Its value is “inhibits the growth”.

And the “growth of Firmicutes (beneficial bacteria)” value (cecal microbiota; [8])?
Its value is “increases the growth”.

What about the “growth of Verrucomicrobia (harmful bacteria) attributable to alcohol intake” value (cecal microbiota; [8]) of the same compound?
Its value is “inhibits the growth”.

What about the “plasma ALT level” value (plasma ALT) of the same compound?
Its value is “decreased”.

What about the “level of 3-NT proteins in the intestine” value [5] of the same compound?
The value was “decreased”.

And the “level of CYP2E1 protein in the intestine” value [5]?
Its value is “decreased”.

And the “level of iNOS protein in the intestine” value [5]?
Its value is “decreased”.

And the “alcohol-induced increase in plasma endotoxin concentration” value (plasma endotoxin)?
The value was “suppressed”.

What about the “apoptosis of intestinal cells” value (intestinal cells) of the same compound?
The value was “decrease”.

What about the “activity level of CYP2E1 proteins in the liver” value [6, 9] of the same compound?
The value was “decreased”.

And the “expression level of CYP2E1 proteins in the liver” value [6, 9]?
Its value is “decreased”.

And the “hepatic 3-NT proteins” value [6, 10]?
The value was “decreased”.

And the “hepatic inducible nitric oxide synthase (iNOS) protein” value [6, 10]?
Its value is “decreased”.

Source: US20220257559A1, “INTESTINAL MICROBIOME-IMPROVING COMPOSITION INCLUDING ELLAGIC ACID AS ACTIVE INGREDIENT” (Andong National University Industry-Academic Cooperation …, priority 2021, published 2022)
